In patent US20020111274A1, “1-alkyl-3-[1-(substituted phenyl) benzotriazol-6-yl] uracils” (BASF Aktiengesellschaft, priority 2000, published 2002):

Experiments:
Design in all cases: scale not given here
AMBEL Ragweed, Common = assay: Preemergence herbicidal evaluation, AMBEL; type: in vivo, Ambrosia artemisifolia, L.; settings: preemergence
Summary of the method: (§1)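 Preemergence soil spray: aqueous acetone, ~0.013–0.800 kg/ha, applied right after sowing (seed/potting-soil mix over ~1 in soil). Greenhouse, routine watering. Scored 4–5 wk post-treatment on a rating scale.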

ECHOG Barnyardgrass [1] = assay: Preemergence herbicidal evaluation, ECHOG; type: in vivo, Echinochloa crus-galli, (L.) Beau; settings: preemergence
Summary of the method: as §1

CASOB Sicklepod [2] = assay: Preemergence herbicidal evaluation, CASOB; type: in vivo, Cassia obtusifolia, L.; settings: preemergence
Summary of the method: as §1

ZEAMX Corn, Field [3] = assay: Postemergence herbicidal evaluation, ZEAMX; type: in vivo, Zea mays, L. (Sammel-Bezeichnung); settings: postemergence spray, rated about two-three weeks after treatment
Summary of the method: (§2)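 Seedlings grown about two weeks were sprayed with compound in 80/20 acetone/water containing 1.0% methylated seed oil, at the equivalent of about 0.006 to 0.400 kg/ha, through a nozzle at 40 psi. Plants were kept in the greenhouse and rated visually about two to three weeks after treatment.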

CASOB Sicklepod [4] = assay: Postemergence herbicidal evaluation, CASOB; type: in vivo, Cassia obtusifolia, L.; settings: postemergence spray, rated about two-three weeks after treatment
Summary of the method: as §2

ECHOG Barnyardgrass [5] = assay: Postemergence herbicidal evaluation, ECHOG; type: in vivo, Echinochloa crus-galli, (L.) Beau; settings: postemergence spray, rated about two-three weeks after treatment
Summary of the method: as §2

SETVI Foxtail, Green [6] = assay: Postemergence herbicidal evaluation, SETVI; type: in vivo, Setaria viridis, (L.) Beau; settings: postemergence spray, rated about two-three weeks after treatment
Summary of the method: as §2

ABUTH Velvetleaf = assay: Preemergence herbicidal evaluation, ABUTH; type: in vivo, Abutilon theophrasti, Medic.; settings: preemergence
Summary of the method: as §1

[7] = system: IPOHE Morningglory, Ivyleaf; assay: Postemergence herbicidal evaluation, IPOHE; type: in vivo, Ipomoea hederacea, (L.) Jacq.; settings: postemergence spray, rated about two-three weeks after treatment
Summary of the method: as §2

GLXMAW Soybean, Williams = assay: Postemergence herbicidal evaluation, GLXMAW; type: in vivo, Glycine max, (L.) Merr. cv Williams; settings: postemergence spray, rated about two-three weeks after treatment
Summary of the method: as §2

SETVI Foxtail, Green [8] = assay: Preemergence herbicidal evaluation, SETVI; type: in vivo, Setaria viridis, (L.) Beau; settings: preemergence
Summary of the method: as §1

GALAP Galium = assay: Postemergence herbicidal evaluation, GALAP; type: in vivo, Galium aparine; settings: postemergence spray, rated about two-three weeks after treatment
Summary of the method: as §2

ZEAMX Corn, Field [9] = assay: Preemergence herbicidal evaluation, ZEAMX; type: in vivo, Zea mays, L. (Sammel-Bezeichnung); settings: preemergence, rate 0.016 kg/ha
Summary of the method: as §1

## CCc1cccc(-n2nnc3cc(F)c(-n4c(=O)cc(C(F)(F)F)n(C)c4=O)cc32)c1 [Example 29, 3-[1-(3-ethylphenyl)-5-fluoro-1H-1,2,3-benzotriazol-6-yl]-1-methyl-6-(trifluoromethyl)-2,4(1H,3H)-pyrimidinedione]
AMBEL Ragweed, Common; rate 0.016 kg/ha
  AMBEL herbicidal rating: 0.0
AMBEL Ragweed, Common; rate 0.032 kg/ha
  AMBEL herbicidal rating: 0.0
AMBEL Ragweed, Common; rate 0.062 kg/ha
  AMBEL herbicidal rating: 3.0
AMBEL Ragweed, Common; rate 0.125 kg/ha
  AMBEL herbicidal rating: 7.0
ECHOG Barnyardgrass [1]; rate 0.016 kg/ha
  ECHCG herbicidal rating: 2.0
ECHOG Barnyardgrass [1]; rate 0.032 kg/ha
  ECHCG herbicidal rating: 4.0
ECHOG Barnyardgrass [1]; rate 0.062 kg/ha
  ECHCG herbicidal rating: 7.0
ECHOG Barnyardgrass [1]; rate 0.125 kg/ha
  ECHCG herbicidal rating: 7.0
CASOB Sicklepod [2]; rate 0.016 kg/ha
  CASOB herbicidal rating: 1.0
CASOB Sicklepod [2]; rate 0.125 kg/ha
  CASOB herbicidal rating: 1.0
ZEAMX Corn, Field [3]; 0.008 kg/ha
  Postemergence herbicidal rating ZEAMX: 3.5
ZEAMX Corn, Field [3]; 0.016 kg/ha
  Postemergence herbicidal rating ZEAMX: 5.0
ZEAMX Corn, Field [3]; 0.032 kg/ha
  Postemergence herbicidal rating ZEAMX: 5.0
ZEAMX Corn, Field [3]; 0.062 kg/ha
  Postemergence herbicidal rating ZEAMX: 5.0
CASOB Sicklepod [4]; 0.008 kg/ha
  Postemergence herbicidal rating CASOB: 0.0
CASOB Sicklepod [4]; 0.016 kg/ha
  Postemergence herbicidal rating CASOB: 2.0
CASOB Sicklepod [4]; 0.032 kg/ha
  Postemergence herbicidal rating CASOB: 2.0
CASOB Sicklepod [4]; 0.062 kg/ha
  Postemergence herbicidal rating CASOB: 3.0
ECHOG Barnyardgrass [5]; 0.008 kg/ha
  Postemergence herbicidal rating ECHCG: 1.0
ECHOG Barnyardgrass [5]; 0.016 kg/ha
  Postemergence herbicidal rating ECHCG: 1.0
ECHOG Barnyardgrass [5]; 0.032 kg/ha
  Postemergence herbicidal rating ECHCG: 1.0
ECHOG Barnyardgrass [5]; 0.062 kg/ha
  Postemergence herbicidal rating ECHCG: 1.0
SETVI Foxtail, Green [6]; 0.008 kg/ha
  Postemergence herbicidal rating SETVI: 1.0
SETVI Foxtail, Green [6]; 0.016 kg/ha
  Postemergence herbicidal rating SETVI: 7.0
SETVI Foxtail, Green [6]; 0.032 kg/ha
  Postemergence herbicidal rating SETVI: 9.0
SETVI Foxtail, Green [6]; 0.062 kg/ha
  Postemergence herbicidal rating SETVI: 9.0
ABUTH Velvetleaf; rate 0.016 kg/ha
  ABUTH herbicidal rating: 6.0
ABUTH Velvetleaf; rate 0.032 kg/ha
  ABUTH herbicidal rating: 9.0
ABUTH Velvetleaf; rate 0.062 kg/ha
  ABUTH herbicidal rating: 9.0
ABUTH Velvetleaf; rate 0.125 kg/ha
  ABUTH herbicidal rating: 9.0
[7]; 0.008 kg/ha
  Postemergence herbicidal rating IPOHE: 9.0
[7]; 0.016 kg/ha
  Postemergence herbicidal rating IPOHE: 9.0
[7]; 0.032 kg/ha
  Postemergence herbicidal rating IPOHE: 9.0
[7]; 0.062 kg/ha
  Postemergence herbicidal rating IPOHE: 9.0
GLXMAW Soybean, Williams; 0.008 kg/ha
  Postemergence herbicidal rating GLXMAW: 5.0
GLXMAW Soybean, Williams; 0.016 kg/ha
  Postemergence herbicidal rating GLXMAW: 6.5
GLXMAW Soybean, Williams; 0.032 kg/ha
  Postemergence herbicidal rating GLXMAW: 8.0
GLXMAW Soybean, Williams; 0.062 kg/ha
  Postemergence herbicidal rating GLXMAW: 8.0
SETVI Foxtail, Green [8]; rate 0.016 kg/ha
  SETVI herbicidal rating: 6.0
SETVI Foxtail, Green [8]; rate 0.032 kg/ha
  SETVI herbicidal rating: 9.0
SETVI Foxtail, Green [8]; rate 0.062 kg/ha
  SETVI herbicidal rating: 9.0
SETVI Foxtail, Green [8]; rate 0.125 kg/ha
  SETVI herbicidal rating: 9.0
GALAP Galium; 0.008 kg/ha
  Postemergence herbicidal rating GALAP: 0.0
GALAP Galium; 0.016 kg/ha
  Postemergence herbicidal rating GALAP: 1.0
GALAP Galium; 0.032 kg/ha
  Postemergence herbicidal rating GALAP: 1.0
GALAP Galium; 0.062 kg/ha
  Postemergence herbicidal rating GALAP: 3.0
ZEAMX Corn, Field [9]
  ZEAMX herbicidal rating: 0.0
